Holding throughout (assay type): functional, organism-based
Assay [1] concerns Escherichia coli. Briefly: Antibacterial activity against efflux pump lacking Escherichia coli assessed as inhibition of bacterial growth.
The test system of assay [2] is Acinetobacter baumannii. As to the kind of experiment: Antibacterial activity against efflux pump lacking/recombinant OM pore producing Acinetobacter baumannii assessed as inhibition of bacterial growth.
Assay [3] deals with Escherichia coli. Briefly: Antibacterial activity against wild type Escherichia coli assessed as inhibition of bacterial growth.
Assay [4] relates to Acinetobacter baumannii. Briefly: Antibacterial activity against wild type Acinetobacter baumannii assessed as inhibition of bacterial growth.
Assay [5] has as its system Acinetobacter baumannii. Briefly: Antibacterial activity against recombinant OM pore producing Acinetobacter baumannii assessed as inhibition of bacterial growth.
Assay [6] relates to Pseudomonas aeruginosa. As to the kind of experiment: Antibacterial activity against wild type Pseudomonas aeruginosa assessed as inhibition of bacterial growth.
Assay [7] has as its system Acinetobacter baumannii. As to the kind of experiment: Antibacterial activity against efflux pump lacking Acinetobacter baumannii assessed as inhibition of bacterial growth.
The subject of assay [8] is Escherichia coli. Briefly: Antibacterial activity against recombinant OM pore producing Escherichia coli assessed as inhibition of bacterial growth.
The test system of assay [9] is Pseudomonas aeruginosa. Briefly: Antibacterial activity against efflux pump lacking/recombinant OM pore producing Pseudomonas aeruginosa assessed as inhibition of bacterial growth.
Assay [10] concerns Pseudomonas aeruginosa. As to the kind of experiment: Antibacterial activity against recombinant OM pore producing Pseudomonas aeruginosa assessed as inhibition of bacterial growth.
Assay [11] concerns Pseudomonas aeruginosa. As to the kind of experiment: Antibacterial activity against efflux pump lacking Pseudomonas aeruginosa assessed as inhibition of bacterial growth.
In assay [12] the test system is Escherichia coli. Briefly: Antibacterial activity against efflux pump lacking/recombinant OM pore producing Escherichia coli assessed as inhibition of bacterial growth.

A value given as a limit tells only on which side of the number the result lay.

The IC50 is the midpoint of a concentration-inhibition curve.

For `CC(C)[n+]1ccc(-c2ccc(N3C[C@H](CO)OC3=O)cc2F)cc1`, the 50% inhibitory concentration (IC50) is 16.9 µM in assay [1]; 22.3 µM in assay [2]; 81.6 µM in [3]; 89.5 µM in assay [4]; 22 µM in [5]; above 100 µM in [6]. Besides, the IC50 in assay [7] is 34.5 µM; in assay [8], 42.8 µM; in [9], 36.6 µM; in [10], above 100 µM; in assay [11], 35.1 µM; in assay [12], 16.6 µM.

With `C[n+]1ccc2cc(-c3ccc(N4C[C@H](CO)OC4=O)cc3F)ccc2c1`, the IC50 in [1] is 4 µM; in assay [2] it was 27.9 µM; in assay [3], 63.6 µM; in assay [4], above 100 µM; in [5], 20.1 µM; in [6], above 100 µM. Further, the half-inhibitory concentration (IC50) in [7] is 29.7 µM; in [8], 30 µM; in [9], above 100 µM; in assay [10], above 100 µM; in assay [11], above 100 µM; in assay [12], 11.4 µM.

As to `CC(C)(C)OC(=O)NCC#Cc1ccc(N2C[C@H](CO)OC2=O)cc1F`, the IC50 is 83.4 µM in assay [1]; above 100 µM in assay [2]; above 100 µM in [3]; above 100 µM in [4]; above 100 µM in assay [5]; above 100 µM in assay [6]. Moreover, the IC50 in assay [7] is above 100 µM; in assay [8], 74.3 µM; in assay [9], above 100 µM; in assay [10] it was above 100 µM; in [11] it was above 100 µM; in [12] it was 64.7 µM.

As to `CSCC#Cc1ccc(N2C[C@H](CO)OC2=O)cc1F`, the IC50 in [1] was 65.9 µM; in assay [2], above 100 µM; in assay [3] it was 94.9 µM; in [4], above 100 µM; in [5], above 100 µM; in assay [6], above 100 µM. The IC50 in assay [7] was above 100 µM; in assay [8], 35.1 µM; in assay [9] it was above 100 µM; in [10], above 100 µM; in [11], above 100 µM; in assay [12], 47.8 µM.

Consider `N[C@@H](Cc1cccc(-c2ccc(N3C[C@H](CO)OC3=O)cc2F)c1)C(=O)O`, for which the IC50 in assay [1], in assay [2], in [3], in assay [4], in assay [5] and in assay [6] was above 100 µM throughout. Further, the 50% inhibitory concentration (IC50) in [7], in assay [8], in assay [9], in assay [10], in [11] and in assay [12] was above 100 µM throughout.

In the case of `COc1ccc(CNC(=O)OC(C)(C)C)cc1OCC#Cc1ccc(N2C[C@H](CO)OC2=O)cc1F`, the IC50 is 42.9 µM in assay [1]; 28.7 µM in assay [2]; above 100 µM in assay [3]; above 100 µM in assay [4]; 42.4 µM in assay [5]; above 100 µM in assay [6]. In addition, the half-maximal inhibitory concentration (IC50) in assay [7] was 72.2 µM; in assay [8], above 100 µM; in [9], 46.9 µM; in [10], above 100 µM; in assay [11] it was above 100 µM; in assay [12], 44.4 µM.

As for `CC(C(=O)NCC#Cc1ccc(N2C[C@H](CO)OC2=O)cc1F)N1CCN(C(=O)OC(C)(C)C)CC1` (stereo partly specified), the IC50 in assay [1] was 50.9 µM; in assay [2], above 100 µM; in assay [3] it was above 100 µM; in assay [4], above 100 µM; in [5], above 100 µM; in assay [6] it was above 100 µM. Besides, the IC50 in assay [7] is above 100 µM; in assay [8], above 100 µM; in [9], above 100 µM; in [10], above 100 µM; in assay [11] it was above 100 µM; in assay [12], 62.6 µM.

Turning to `COCC#Cc1ccc(N2C[C@H](CO)OC2=O)cc1F`, the IC50 in assay [1] is 80.3 µM; in [2] it was above 100 µM; in [3], 74.9 µM; in assay [4], above 100 µM; in assay [5], above 100 µM; in [6] it was above 100 µM. In addition, the IC50 in assay [7] was above 100 µM; in assay [8], 36.3 µM; in [9] it was above 100 µM; in assay [10], above 100 µM; in [11], above 100 µM; in [12], 44 µM.

Regarding `CC(C(=O)NCC#Cc1ccc(N2C[C@H](CO)OC2=O)cc1F)N1CCNCC1` (stereo partly specified), the IC50 in [1], in [2], in [3], in [4], in [5] and in [6] was above 100 µM each time. For the same compound, the IC50 in [7], in assay [8], in assay [9], in assay [10], in assay [11] and in assay [12] was above 100 µM throughout.

`C[n+]1ccccc1-c1ccc(N2C[C@H](CO)OC2=O)cc1F`: the IC50 in [1] is 72.3 µM; in [2], 33.3 µM; in [3], above 100 µM; in [4] it was above 100 µM; in [5], above 100 µM; in assay [6] it was above 100 µM. The 50% inhibitory concentration (IC50) in assay [7] was above 100 µM; in assay [8], above 100 µM; in assay [9] it was 40.4 µM; in assay [10], above 100 µM; in [11], above 100 µM; in assay [12] it was 60.4 µM.

With `CC(C)(C)OC(=O)NC(CO)CC#Cc1ccc(N2C[C@H](CO)OC2=O)cc1F` (stereo partly specified), the IC50 in assay [1] is 72.6 µM; in [2] it was above 100 µM; in assay [3], above 100 µM; in [4] it was above 100 µM; in assay [5], above 100 µM; in assay [6] it was above 100 µM. The half-maximal inhibitory concentration (IC50) in assay [7] was above 100 µM; in [8], 97.3 µM; in assay [9], above 100 µM; in assay [10] it was above 100 µM; in assay [11] it was above 100 µM; in assay [12], 67.8 µM.

Take `NC(CO)CC#Cc1ccc(N2C[C@H](CO)OC2=O)cc1F` (stereo partly specified): the IC50 in assay [1], in assay [2], in assay [3], in assay [4], in assay [5] and in assay [6] was above 100 µM each time. In addition, the half-inhibitory concentration (IC50) in [7], in assay [8], in assay [9], in assay [10], in assay [11] and in [12] was above 100 µM each time.

On to `COC(=O)Cn1cc(C#Cc2ccc(N3C[C@H](CO)OC3=O)cc2F)cn1`, for which the 50% inhibitory concentration (IC50) in assay [1] is 88.7 µM; in assay [2] it was 62 µM; in assay [3], above 100 µM; in assay [4], above 100 µM; in [5] it was above 100 µM; in assay [6] it was above 100 µM. Also, the half-maximal inhibitory concentration (IC50) in [7] is above 100 µM; in [8], 52.3 µM; in assay [9], above 100 µM; in assay [10], above 100 µM; in assay [11], above 100 µM; in assay [12] it was 36.6 µM.

For the compound `C[n+]1ccccc1-c1ccc(-c2ccc(N3C[C@H](CO)OC3=O)cc2F)cc1`, the IC50 in assay [1] was 3.1 µM; in assay [2], 10.2 µM; in [3], 72.6 µM; in assay [4], above 100 µM; in [5], 13.3 µM; in assay [6], above 100 µM. The 50% inhibitory concentration (IC50) came to 20.4 µM in assay [7]; 13.2 µM in [8]; 1.2 µM in assay [9]; 15.9 µM in assay [10]; 8.4 µM in assay [11]; 4.4 µM in [12].

With `CC(C)(C)OC(=O)N(CC#Cc1ccc(N2C[C@H](CO)OC2=O)cc1F)CC(=O)O`, the IC50 in assay [1], in [2], in assay [3], in assay [4], in assay [5] and in [6] was above 100 µM throughout. In addition, the concentration for half-maximal inhibition (IC50) in assay [7], in [8], in assay [9], in assay [10], in assay [11] and in [12] was above 100 µM each time.

Take `O=C1O[C@@H](CO)CN1c1ccc(-c2ccccn2)c(F)c1`: the IC50 in [1] is 76.8 µM; in assay [2], above 100 µM; in [3] it was above 100 µM; in [4], above 100 µM; in assay [5], above 100 µM; in assay [6], above 100 µM. Also, the IC50 in assay [7] was above 100 µM; in [8], above 100 µM; in [9] it was 47.4 µM; in assay [10], above 100 µM; in assay [11] it was 64.2 µM; in [12], 79.6 µM.

On to `O=C1O[C@@H](CO)CN1c1ccc(-c2ccnc(N3CCCC3)c2)c(F)c1`, for which the IC50 in assay [1] was 15.4 µM; in assay [2] it was 72.4 µM; in assay [3], above 100 µM; in [4] it was 71.9 µM; in [5], 71.9 µM; in assay [6], above 100 µM. In addition, the IC50 in assay [7] is 72.4 µM; in [8] it was 4 µM; in assay [9], above 100 µM; in [10], above 100 µM; in assay [11] it was above 100 µM; in [12] it was 1.5 µM.

As for `Cc1ccc(-c2ccc(N3C[C@H](CO)OC3=O)cc2F)cc1`, the half-maximal inhibitory concentration (IC50) in assay [1] was 0.3 µM; in [2], 1.6 µM; in [3] it was 28 µM; in [4], above 100 µM; in [5] it was above 100 µM; in assay [6] it was above 100 µM. Further, the IC50 in [7] was 2.3 µM; in assay [8], 3.2 µM; in assay [9], 3.8 µM; in assay [10], above 100 µM; in [11], 2.3 µM; in assay [12], 0.3 µM.

For the origin of these results see ChEMBL document CHEMBL5104202, “Structure-Uptake Relationship Studies of Oxazolidinones in Gram-Negative ESKAPE Pathogens” (J Med Chem, 2022).
